From patent US4504580A, “Antibiotics produced by fermentation of a novel strain of Streptomyces hygroscopicus” (Bristol-Myers Company, priority 1983, dated 1985)
In brackets after ≈: the same amount, converted by molar mass.

How the values were obtained:
[1] = tested on: Staphylococcus aureus Smith; assay: MIC by serial two-fold agar dilution, S. aureus Smith; assay type: cell-based; conditions: Staphylococcus aureus; Table 7; Mueller-Hinton agar; read-out: MIC
Experimental: (§1) The minimum inhibitory concentrations (MIC) of Bu-2659A, B, C, D and E were determined for a variety of gram-positive and gram-negative bacteria by the serial two-fold agar dilution method using the Steer's multi-inoculating apparatus. The inoculum was standardized as a 10^4 dilution of an overnight culture of the test organisms in Heart Infusion Broth (Difco). […] Reference antibiotics utilized in these tests included commercially available neomycin as well as its components, neomycins B and C [as used herein, the term "neomycin" means the commercial product containing neomycins B and C at an approximate ratio of 7:3], paromomycin [the commercial product containing >90% of paromomycin I and <10% of paromomycin II] and ribostamycin.

[2] = tested on: Micrococcus flavus D12; assay: MIC by serial two-fold agar dilution, M. flavus D12; assay type: cell-based; conditions: Micrococcus flavus, D12; Table 7; Mueller-Hinton agar; read-out: MIC
Experimental: as §1

[3] = tested on: Escherichia coli NIHJ; assay: MIC by serial two-fold agar dilution, E. coli NIHJ; assay type: cell-based; conditions: Escherichia coli; Table 7; Mueller-Hinton agar; read-out: MIC
Experimental: as §1

[4] = tested on: Klebsiella pneumoniae D11; assay: MIC by serial two-fold agar dilution, K. pneumoniae D11; assay type: cell-based; conditions: Klebsiella pneumoniae, D11; Table 7; Mueller-Hinton agar; read-out: MIC
Experimental: as §1

[5] = tested on: Proteus vulgaris A9436; assay: MIC by serial two-fold agar dilution, P. vulgaris A9436; assay type: cell-based; conditions: Proteus vulgaris, A9436; Table 7; Mueller-Hinton agar; read-out: MIC
Experimental: as §1

[6] = tested on: Proteus mirabilis A9554; assay: MIC by serial two-fold agar dilution, P. mirabilis A9554; assay type: cell-based; conditions: Proteus mirabilis, A9554; Table 7; Mueller-Hinton agar; read-out: MIC
Experimental: as §1

[7] = tested on: Proteus mirabilis A9906; assay: MIC by serial two-fold agar dilution, P. mirabilis A9906; assay type: cell-based; conditions: Proteus mirabilis, A9906; Table 7; Mueller-Hinton agar; read-out: MIC
Experimental: as §1

[8] = tested on: Proteus morganii A9553; assay: MIC by serial two-fold agar dilution, P. morganii A9553; assay type: cell-based; conditions: Morganella morganii, A9553; Table 7; Mueller-Hinton agar; read-out: MIC
Experimental: as §1

[9] = tested on: Proteus rettgeri A15167; assay: MIC by serial two-fold agar dilution, P. rettgeri A15167; assay type: cell-based; conditions: Providencia rettgeri, A15167; Table 7; Mueller-Hinton agar; read-out: MIC
Experimental: as §1

[10] = tested on: Pseudomonas aeruginosa D15; assay: MIC by serial two-fold agar dilution, P. aeruginosa D15; assay type: cell-based; conditions: Pseudomonas aeruginosa, D15; Table 7; Mueller-Hinton agar; read-out: MIC
Experimental: as §1

[11] = tested on: Pseudomonas aeruginosa A9930; assay: MIC by serial two-fold agar dilution, P. aeruginosa A9930; assay type: cell-based; conditions: Pseudomonas aeruginosa, A9930; Table 7; Mueller-Hinton agar; read-out: MIC
Experimental: as §1

[12] = tested on: Serratia marcescens A20019; assay: MIC by serial two-fold agar dilution, S. marcescens A20019; assay type: cell-based; conditions: Serratia marcescens, A20019; Table 7; Mueller-Hinton agar; read-out: MIC
Experimental: as §1

[13] = tested on: Streptococcus pyogenes A20201; assay: MIC by serial two-fold agar dilution, S. pyogenes A20201; assay type: cell-based; conditions: Streptococcus pyogenes, A20201; Table 8; GC medium; read-out: MIC
Experimental: as §1

[14] = tested on: Mycobacterium phlei; assay: MIC by serial two-fold agar dilution, M. phlei; assay type: cell-based; conditions: Mycolicibacterium phlei; Table 8; No. 1001 medium; read-out: MIC
Experimental: as §1

[15] = tested on: Bacillus brevis IFO 12334; assay: MIC, aminoglycoside-resistant B. brevis IFO 12334; assay type: cell-based; conditions: Brevibacillus brevis, IFO12334; Table 9; inactivating enzyme ANT (4'); Mueller-Hinton agar; read-out: MIC
Experimental: as §1

[16] = tested on: Escherichia coli A20107; assay: MIC, aminoglycoside-resistant E. coli A20107; assay type: cell-based; conditions: Escherichia coli, A20107; Table 9; inactivating enzyme APH(3')-II; Mueller-Hinton agar; read-out: MIC
Experimental: as §1

[17] = tested on: Escherichia coli JR88; assay: MIC, aminoglycoside-resistant E. coli JR88; assay type: cell-based; conditions: Escherichia coli, JR88
Experimental: as §1

[18] = tested on: Escherichia coli A20732; assay: MIC, aminoglycoside-resistant E. coli A20732; assay type: cell-based; conditions: Escherichia coli, A20732; Table 9; inactivating enzyme ANT(2"); Mueller-Hinton agar; read-out: MIC
Experimental: as §1

[19] = tested on: Enterobacter cloacae A20364; assay: MIC, aminoglycoside-resistant E. cloacae A20364; assay type: cell-based; conditions: Enterobacter cloacae, A20364; Table 9; inactivating enzyme APH(3')-I; Mueller-Hinton agar; read-out: MIC
Experimental: as §1

[20] = tested on: species of Streptococcus and Mycobacterium; assay: Antibacterial activity (MIC), overall, Streptococcus and Mycobacterium, Table 8; assay type: cell-based
Experimental: as §1

[21] = tested on: Neisseria and Haemophilus species; assay: Antibacterial activity (MIC), overall, Neisseria and Haemophilus, Table 8; assay type: cell-based; conditions: compared with neomycin
Experimental: as §1

[22] = tested on: Streptococcus pyogenes A20201; assay: Experimental systemic infection in mice, S. pyogenes A20201; assay type: in vivo; conditions: Streptococcus pyogenes, A20201, 96 h, im, single treatment, 4 days, read-out: PD50
Experimental: The in vivo activity of Bu-2659A was assessed by experimental systemic infection in mice. The pathogenic bacteria used in the in vivo tests were E. coli Juhl, K. pneumoniae D-11, P. mirabilis A9906, S. aureus Smith and S. pyogenes A20201. Mice were challenged intraperitoneally with approximately 100×LD50 dose of the pathogens in a 5% suspension of hog gastric mucin (American Laboratories, Omaha, Neb.). A single intramuscular treatment with the antibiotic was given immediately after the bacterial challenge. […] Neomycin was comparatively tested as a reference compound. […] In terms of PD50 value Bu-2659A was about one-half as active as neomycin against infections with S. aureus and S. pyogenes.

NC[C@@H]1O[C@H](O[C@H]2[C@@H](O)[C@H](O[C@@H]3[C@@H](O)[C@H](O)C[C@H](N)[C@H]3O[C@H]3O[C@H](CN)[C@@H](O)[C@H](O)[C@H]3N)O[C@@H]2CO)[C@H](N)[C@@H](O)[C@@H]1O [Bu-2659A, 1-deamino-1-hydroxyneomycin B]
MIC [1]: 1.6 µg/mL (≈ 2.6 µM)
MIC [2]: 6.3 µg/mL (≈ 10.2 µM)
MIC [3]: 1.6 µg/mL (≈ 2.6 µM)
MIC [4]: 0.2 µg/mL (≈ 0.325 µM)
MIC [5]: 0.4 µg/mL (≈ 0.65 µM)
MIC [6]: 0.8 µg/mL (≈ 1.3 µM)
MIC [7]: 0.8 µg/mL (≈ 1.3 µM)
MIC [8]: 1.6 µg/mL (≈ 2.6 µM)
MIC [9]: 0.8 µg/mL (≈ 1.3 µM)
MIC [10]: 3.1 µg/mL (≈ 5.04 µM)
MIC [11]: 1.6 µg/mL (≈ 2.6 µM)
MIC [12]: 3.1 µg/mL (≈ 5.04 µM)
MIC [13]: 25 µg/mL (≈ 40.6 µM)
MIC [14]: 0.1 µg/mL (≈ 0.162 µM)
MIC [15]: > 100 µg/mL
MIC [16]: 25 µg/mL (≈ 40.6 µM)
MIC [17]: 1.6 µg/mL (≈ 2.6 µM)
MIC [18]: 0.8 µg/mL (≈ 1.3 µM)
MIC [19]: 50 µg/mL (≈ 81.2 µM)
activity against Streptococcus and Mycobacterium, in words [20]: equivalent activity
activity against Neisseria and Haemophilus, in words [21]: more active than neomycin
ED50 [22]: 50 mg/kg
